From the supplement of paper PMC8967900

system: DND-41; test: selective drug sensitivity score (sDSS, relative to normal bone marrow) (sDSS (score)); higher = more potent and effective on the cell line relative to normal bone marrow cells; settings: 72 h
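Further: ALL cell lines in 384-well plates, five doses spanning 10,000-fold, each plate scaled between vehicle and 100 µmol/L benzalkonium chloride controls, sDSS an adapted area-under-curve metric.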

| Structure (SMILES) | selective drug sensitivity score |
| --- | --- |
| Nc1nc2cc(-c3ccc4ncc(C(=O)N5CCOCC5)n4c3)ccc2o1 [Serabelisib] (top concentration 10000 nM) | 0.66 |
| COc1cccc(-c2ccc(NC(=O)C3=C(C(=O)O)CCC3)c(F)c2)c1 [Vidofludimus] (top concentration 10000 nM) | 5.3 |
| Cc1cccc(-c2nn3c(c2-c2ccnc4ccc(C(N)=O)cc24)CCC3)n1 [Galunisertib] (top concentration 1000 nM) | 0 |
| COc1cc2c(N3CCN(C(=O)Nc4ccc(OC(C)C)cc4)CC3)ncnc2cc1OCCCN1CCCCC1 [Tandutinib] (top concentration 1000 nM) | 2.3 |
| Cc1c(F)cc(C(=O)NC2CC2)cc1-c1ccc(C(=O)NCC(C)(C)C)cn1 [Losmapimod] (top concentration 10000 nM) | -0.18 |
| Nc1nc(N)c2nc(-c3cccc(O)c3)c(-c3cccc(O)c3)nc2n1 [TG100-115] (top concentration 10000 nM) | 0.1 |
| C[C@]12CC[C@@H]3c4ccc(O)cc4C[C@@H](CCCCCCCCC[S+]([O-])CCCC(F)(F)C(F)(F)F)[C@H]3[C@@H]1CC[C@@H]2O (stereo not given in full) [Fulvestrant] (top concentration 1000 nM) | 8.3 |
| O=C(Nc1cccnc1)N1CCC(Cc2cccc(Oc3ccc(C(F)(F)F)cn3)c2)CC1 [PF-3845] (top concentration 10000 nM) | -0.24 |
| COc1cc2c(cc1OCCCN1CCCC1)N=C(N)C21CCC1 [A-366] (top concentration 25000 nM) | 4.56 |
| Oc1ncnc2[nH]ncc12 [Allopurinol] (top concentration 10000 nM) | -0.64 |
| CC(C)n1cnc2c(NCCc3ccc(O)cc3)nc(-c3csc4ccccc34)nc21 [StemRegenin_1] (top concentration 10000 nM) | 4.5 |
| C#Cc1cccc(Nc2ncnc3cc4c(cc23)OCCOCCOCCO4)c1 [Icotinib] (top concentration 10000 nM) | 0 |
| CN[C@@H](C)C(=O)N[C@H]1CN(C(=O)CC(C)C)CC[C@H]2CC[C@@H](C(=O)NC(c3ccccc3)c3ccccc3)N2C1=O [AT-406] (top concentration 10000 nM) | -1.26 |
| CC(C)(O)CC(=O)NCCn1ccc2ncnc(Nc3ccc(Oc4cccc(C(F)(F)F)c4)c(Cl)c3)c21 [TAK-285] (top concentration 2500 nM) | 0 |
| COc1cc(C)[nH]c(=O)c1CNC(=O)c1c(C)n([C@H](C)C2CCOCC2)c2ccccc12 [CPI-360] (top concentration 10000 nM) | 0 |
| Cc1cc2c(C(=O)NC[C@H](C)c3ccccc3)c(O)c(O)cc2c(O)c1-c1c(C)cc2c(C(=O)NC[C@H](C)c3ccccc3)c(O)c(O)cc2c1O [Sabutoclax] (top concentration 25000 nM) | 10.6 |
| CC(C)(C)C[C@@H]1N[C@@H](C(=O)N[C@H]2CC[C@H](O)CC2)[C@H](c2cccc(Cl)c2F)[C@]12C(=O)Nc1cc(Cl)ccc12 (top concentration 10000 nM) | -3.84 |
| C[C@@H]1C[C@H]2[C@@H]3CCC4=CC(=O)C=C[C@]4(C)[C@@]3(F)[C@@H](O)C[C@]2(C)[C@@]1(O)C(=O)CO [Dexamethasone] (top concentration 10000 nM) | 36.3 |

system: KARPAS-45; test: as above; settings: 72 h

| Structure (SMILES) | selective drug sensitivity score |
| --- | --- |
| Nc1nc2cc(-c3ccc4ncc(C(=O)N5CCOCC5)n4c3)ccc2o1 [Serabelisib] (top concentration 10000 nM) | 0.06 |
| COc1cccc(-c2ccc(NC(=O)C3=C(C(=O)O)CCC3)c(F)c2)c1 [Vidofludimus] (top concentration 10000 nM) | 3.9 |
| Cc1cccc(-c2nn3c(c2-c2ccnc4ccc(C(N)=O)cc24)CCC3)n1 [Galunisertib] (top concentration 1000 nM) | 0 |
| COc1cc2c(N3CCN(C(=O)Nc4ccc(OC(C)C)cc4)CC3)ncnc2cc1OCCCN1CCCCC1 [Tandutinib] (top concentration 1000 nM) | 0 |
| Cc1c(F)cc(C(=O)NC2CC2)cc1-c1ccc(C(=O)NCC(C)(C)C)cn1 [Losmapimod] (top concentration 10000 nM) | -0.18 |
| Nc1nc(N)c2nc(-c3cccc(O)c3)c(-c3cccc(O)c3)nc2n1 [TG100-115] (top concentration 10000 nM) | 0.8 |
| C[C@]12CC[C@@H]3c4ccc(O)cc4C[C@@H](CCCCCCCCC[S+]([O-])CCCC(F)(F)C(F)(F)F)[C@H]3[C@@H]1CC[C@@H]2O (stereo not given in full) [Fulvestrant] (top concentration 1000 nM) | 0 |
| O=C(Nc1cccnc1)N1CCC(Cc2cccc(Oc3ccc(C(F)(F)F)cn3)c2)CC1 [PF-3845] (top concentration 10000 nM) | 3.96 |
| COc1cc2c(cc1OCCCN1CCCC1)N=C(N)C21CCC1 [A-366] (top concentration 25000 nM) | 5.16 |
| Oc1ncnc2[nH]ncc12 [Allopurinol] (top concentration 10000 nM) | -0.24 |
| CC(C)n1cnc2c(NCCc3ccc(O)cc3)nc(-c3csc4ccccc34)nc21 [StemRegenin_1] (top concentration 10000 nM) | 3.9 |
| C#Cc1cccc(Nc2ncnc3cc4c(cc23)OCCOCCOCCO4)c1 [Icotinib] (top concentration 10000 nM) | 1.4 |
| CN[C@@H](C)C(=O)N[C@H]1CN(C(=O)CC(C)C)CC[C@H]2CC[C@@H](C(=O)NC(c3ccccc3)c3ccccc3)N2C1=O [AT-406] (top concentration 10000 nM) | -1.26 |
| CC(C)(O)CC(=O)NCCn1ccc2ncnc(Nc3ccc(Oc4cccc(C(F)(F)F)c4)c(Cl)c3)c21 [TAK-285] (top concentration 2500 nM) | 0 |
| COc1cc(C)[nH]c(=O)c1CNC(=O)c1c(C)n([C@H](C)C2CCOCC2)c2ccccc12 [CPI-360] (top concentration 10000 nM) | 0 |
| Cc1cc2c(C(=O)NC[C@H](C)c3ccccc3)c(O)c(O)cc2c(O)c1-c1c(C)cc2c(C(=O)NC[C@H](C)c3ccccc3)c(O)c(O)cc2c1O [Sabutoclax] (top concentration 25000 nM) | 16.2 |
| CC(C)(C)C[C@@H]1N[C@@H](C(=O)N[C@H]2CC[C@H](O)CC2)[C@H](c2cccc(Cl)c2F)[C@]12C(=O)Nc1cc(Cl)ccc12 (top concentration 10000 nM) | -2.64 |
| C[C@@H]1C[C@H]2[C@@H]3CCC4=CC(=O)C=C[C@]4(C)[C@@]3(F)[C@@H](O)C[C@]2(C)[C@@]1(O)C(=O)CO [Dexamethasone] (top concentration 10000 nM) | 24.4 |

system: KASUMI-10; test: as above; settings: 72 h

| Structure (SMILES) | selective drug sensitivity score |
| --- | --- |
| Nc1nc2cc(-c3ccc4ncc(C(=O)N5CCOCC5)n4c3)ccc2o1 [Serabelisib] (top concentration 10000 nM) | -1.54 |
| COc1cccc(-c2ccc(NC(=O)C3=C(C(=O)O)CCC3)c(F)c2)c1 [Vidofludimus] (top concentration 10000 nM) | 0.5 |
| Cc1cccc(-c2nn3c(c2-c2ccnc4ccc(C(N)=O)cc24)CCC3)n1 [Galunisertib] (top concentration 1000 nM) | 0 |
| COc1cc2c(N3CCN(C(=O)Nc4ccc(OC(C)C)cc4)CC3)ncnc2cc1OCCCN1CCCCC1 [Tandutinib] (top concentration 1000 nM) | 4.5 |
| Cc1c(F)cc(C(=O)NC2CC2)cc1-c1ccc(C(=O)NCC(C)(C)C)cn1 [Losmapimod] (top concentration 10000 nM) | -0.18 |
| Nc1nc(N)c2nc(-c3cccc(O)c3)c(-c3cccc(O)c3)nc2n1 [TG100-115] (top concentration 10000 nM) | 0.1 |
| C[C@]12CC[C@@H]3c4ccc(O)cc4C[C@@H](CCCCCCCCC[S+]([O-])CCCC(F)(F)C(F)(F)F)[C@H]3[C@@H]1CC[C@@H]2O (stereo not given in full) [Fulvestrant] (top concentration 1000 nM) | 0 |
| O=C(Nc1cccnc1)N1CCC(Cc2cccc(Oc3ccc(C(F)(F)F)cn3)c2)CC1 [PF-3845] (top concentration 10000 nM) | -1.34 |
| COc1cc2c(cc1OCCCN1CCCC1)N=C(N)C21CCC1 [A-366] (top concentration 25000 nM) | 1.46 |
